{
  "source": "PubChem BioAssay AID1033",
  "about": "(Sanford-Burnham Center for Chemical Genomics, 2008)",
  "note": "Calls of active or inactive are those of the source. How the calls were made is not given here.",
  "data": [
    {"target": "Chaperone protein DnaK (Escherichia coli (strain K12)) (UniProt P0A6Y8)", "sequence (P0A6Y8 whole entry, looked up, the tested form may be a part)": "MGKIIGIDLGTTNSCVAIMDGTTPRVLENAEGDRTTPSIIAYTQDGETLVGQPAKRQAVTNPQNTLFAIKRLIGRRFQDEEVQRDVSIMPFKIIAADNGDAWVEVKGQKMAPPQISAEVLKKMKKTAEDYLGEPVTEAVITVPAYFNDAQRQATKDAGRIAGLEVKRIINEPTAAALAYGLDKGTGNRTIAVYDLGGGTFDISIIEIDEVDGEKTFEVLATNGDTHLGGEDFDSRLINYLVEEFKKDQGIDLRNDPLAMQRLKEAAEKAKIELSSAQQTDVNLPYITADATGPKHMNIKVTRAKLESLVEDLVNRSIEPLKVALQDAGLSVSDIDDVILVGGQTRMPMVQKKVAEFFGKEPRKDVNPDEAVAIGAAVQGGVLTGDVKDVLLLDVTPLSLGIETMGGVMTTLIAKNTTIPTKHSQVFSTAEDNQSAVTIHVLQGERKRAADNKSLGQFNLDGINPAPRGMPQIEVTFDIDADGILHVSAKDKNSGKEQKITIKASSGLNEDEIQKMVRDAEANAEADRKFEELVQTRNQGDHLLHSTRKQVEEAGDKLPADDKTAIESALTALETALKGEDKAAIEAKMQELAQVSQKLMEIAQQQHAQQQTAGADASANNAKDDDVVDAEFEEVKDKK", "experiment": "binders of DnaK substrate-binding domain, biophysical, NMR, chaperone (AID 1033)", "conditions": "Purified DnaK SBD, NMR ligand binding", "values": [
      {"smiles": "CC(=O)Cc1nsc(NC(=O)c2ccc(C)cc2)n1", "Kd": "> 4 mM (inactive)"},
      {"smiles": "N#Cc1cn(CC(=O)N2CCCC2)c2ccccc12", "Kd": "> 4 mM (inactive)"},
      {"smiles": "Cc1cc(-c2ccccc2)nc2cc(C(N)=O)nn12", "Kd": "> 4 mM (inactive)"},
      {"smiles": "CC(C)=CC(=O)Nc1ccc2c(c1)OCO2", "Kd": "> 4 mM (inactive)"},
      {"smiles": "NC(=O)CSc1ncnc2ccccc12", "Kd": "> 4 mM (inactive)"},
      {"smiles": "NC(=O)c1c(Cl)nsc1-c1ccccc1Cl", "Kd": "> 4 mM (inactive)"},
      {"smiles": "Nc1nc(-c2cccnc2)nn1C(=O)Cc1ccccc1", "Kd": "> 4 mM (inactive)"},
      {"smiles": "COc1c(O)cc2oc3cc(O)c(CC=C(C)C)c(O)c3c(=O)c2c1CC=C(C)C", "Kd": "> 4 mM (inactive)"},
      {"smiles": "O=S1(=O)C=CC(N2CCCCC2)C1", "note": "(stereo not given)", "Kd": "> 4 mM (inactive)"},
      {"smiles": "COc1ccccc1-c1nc(-c2ccc(C)nc2OC)no1", "Kd": "> 4 mM (inactive)"},
      {"smiles": "O=C(Cc1cccs1)Nc1ccon1", "Kd": "> 4 mM (inactive)"},
      {"smiles": "O=C(NCc1ccco1)c1ccc(Br)s1", "Kd": "> 4 mM (inactive)"},
      {"smiles": "CN1CCN(C(=O)c2ccccc2N)CC1", "Kd": "> 4 mM (inactive)"},
      {"smiles": "O=C(Nn1cnnc1)c1cc2c(s1)CCCC2", "Kd": "> 4 mM (inactive)"},
      {"smiles": "COC(=O)C1CCc2ccccc2N1", "note": "(stereo not given)", "Kd": "> 4 mM (inactive)"},
      {"smiles": "CSc1ccccc1NC(=O)c1ccco1", "Kd": "> 4 mM (inactive)"},
      {"smiles": "CC(=O)Nc1cccc(Cn2cccn2)c1", "Kd": "> 4 mM (inactive)"},
      {"smiles": "Cc1ccc(Nc2nnns2)cc1C", "Kd": "> 4 mM (inactive)"},
      {"smiles": "NCc1ccc(N2CCOCC2)cc1", "Kd": "> 4 mM (inactive)"},
      {"smiles": "CC(=O)Nc1ccc(S(=O)(=O)NC2=NCCS2)cc1", "Kd": "> 4 mM (inactive)"},
      {"smiles": "CNC(=O)c1ccccc1-c1ccccc1", "Kd": "> 4 mM (inactive)"},
      {"smiles": "CS(=O)(=O)Nc1nnc(Cc2ccccc2)s1", "Kd": "> 4 mM (inactive)"},
      {"smiles": "CSc1ccc(/C=N/n2c(C)nnc2C)cc1", "Kd": "> 4 mM (inactive)"},
      {"smiles": "C/C=C/c1ccc2c(c1)OCO2", "Kd": "> 4 mM (inactive)"},
      {"smiles": "CNC(=O)C(=O)Nc1ccc(C)c(C)c1", "Kd": "> 4 mM (inactive)"},
      {"smiles": "O=C1COc2ccccc2C(=O)N1", "Kd": "> 4 mM (inactive)"},
      {"smiles": "CN1CCC=C(C(=O)O)C1", "Kd": "> 4 mM (inactive)"},
      {"smiles": "O=C1c2ccccc2C(=O)N1/N=C/c1ccc[nH]1", "Kd": "> 4 mM (inactive)"},
      {"smiles": "CN1C(=O)c2ccc(C(=O)NC3CCCCC3)cc2C1=O", "Kd": "> 4 mM (inactive)"},
      {"smiles": "Cc1nc(SCC(=O)c2c[nH]c3ccccc23)n[nH]1", "Kd": "> 4 mM (inactive)"},
      {"smiles": "COc1cccc(/C=N/N=C2/NC(=O)CS2)c1", "Kd": "> 4 mM (inactive)"},
      {"smiles": "CCOC(=O)C1CCNCC1", "Kd": "> 4 mM (inactive)"},
      {"smiles": "O=C(O)c1ccccc1C(=O)Nc1ccccc1", "Kd": "> 4 mM (inactive)"},
      {"smiles": "C/C(N)=C/C(=O)N1CCCCC1", "Kd": "> 4 mM (inactive)"},
      {"smiles": "COC(=O)c1cccc(C(F)(F)F)c1", "Kd": "> 4 mM (inactive)"},
      {"smiles": "O=C(Nc1ccccn1)c1cc(-n2cnnc2)ccc1Cl", "Kd": "> 4 mM (inactive)"},
      {"smiles": "O=c1c2ccccc2ncn1C1CCCCC1", "Kd": "> 4 mM (inactive)"},
      {"smiles": "Cc1nnc(SCC(N)=O)c2ccccc12", "Kd": "> 4 mM (inactive)"},
      {"smiles": "Cc1ccc(-c2c(C)n([O-])c3c([n+]2=O)CCCC3)o1", "Kd": "> 4 mM (inactive)"},
      {"smiles": "NC1=NC(=O)/C(=C\\c2cccnc2)S1", "Kd": "> 4 mM (inactive)"},
      {"smiles": "O=C(O)CNC(=O)c1ccccc1", "Kd": "> 4 mM (inactive)"},
      {"smiles": "Cc1nc2ccccc2c(=O)n1CCCO", "Kd": "> 4 mM (inactive)"},
      {"smiles": "CC1Cc2nc(SCC(N)=O)n(C)c(=O)c2S1", "note": "(stereo not given)", "Kd": "> 4 mM (inactive)"},
      {"smiles": "Cc1ccc(-c2nc(-c3cccnc3)no2)c(C)c1", "Kd": "> 4 mM (inactive)"},
      {"smiles": "CC(=O)c1c(O)c(C)c(O)c2c1OC1=CC(=O)C(C(C)=O)C(=O)C12C", "note": "(stereo not given)", "Kd": "> 4 mM (inactive)"},
      {"smiles": "c1ccc(CCc2nc(-c3ccccn3)no2)cc1", "Kd": "> 4 mM (inactive)"},
      {"smiles": "O=C1CCC(=O)N1c1ccc(O)cc1", "Kd": "> 4 mM (inactive)"},
      {"smiles": "Cn1nnc2cc(C(=O)Nc3cccnc3)ccc21", "Kd": "> 4 mM (inactive)"},
      {"smiles": "S=c1[nH]nc(-c2cccnc2)n1Cc1ccccc1", "Kd": "> 4 mM (inactive)"},
      {"smiles": "CC(=O)N1CN(C(C)=O)CN(C(C)=O)C1", "Kd": "> 4 mM (inactive)"},
      {"smiles": "Cc1c(O)c(O)cc2c1CC=C1[C@@]2(C)CC[C@@]2(C)C3C[C@](C)(C(=O)O)CC[C@]3(C)CC[C@]12C", "note": "(stereo not given in full)", "Kd": "> 4 mM (inactive)"},
      {"smiles": "Nc1ccc2c(c1)N1CCN=C1S2", "Kd": "> 4 mM (inactive)"},
      {"smiles": "O=C(O)c1ccc(CSc2ncn[nH]2)cc1", "Kd": "> 4 mM (inactive)"},
      {"smiles": "OC(c1ccccc1)c1ccccn1", "note": "(stereo not given)", "Kd": "> 4 mM (inactive)"},
      {"smiles": "O=S(=O)(Cc1ccccc1)N1CCCCCC1", "Kd": "> 4 mM (inactive)"},
      {"smiles": "Cc1cc(NC(=O)CS(=O)(=O)c2ccccc2)no1", "Kd": "> 4 mM (inactive)"},
      {"smiles": "Cc1cc(NC(=O)CSc2ccnc(=O)[nH]2)no1", "Kd": "> 4 mM (inactive)"},
      {"smiles": "CC(=O)O[C@H]1CC[C@@]2(C)C(CC[C@]3(C)C2C(=O)C=C2C4[C@@H](C)[C@H](C)CC[C@]4(C(=O)O)CC[C@]23C)C1(C)C", "note": "(stereo not given in full)", "Kd": "> 4 mM (inactive)"},
      {"smiles": "Nc1nncn1C(=O)c1ccccc1Cl", "Kd": "> 4 mM (inactive)"},
      {"smiles": "Fc1cccc(Cl)c1CN1CCNCC1", "Kd": "> 4 mM (inactive)"}
    ]}
  ]
}
